Experimental data from BindingDB's records for doi:10.1021/jm030810w (Glaxosmithkline, 2003).
pKi: −log10 of the molar value.

Each compound was assayed against Cytomegalovirus protease/assemblin (Human cytomegalovirus) (assay: Potency against human cytomegalovirus protease in HCMV pNA assay).

pKi | Structure (SMILES)
7.39 | CC(C)c1ccc(NC(=O)N2CCC[C@H]2C(=O)N2CC[C@H]3[C@H]2[C@H](C)C(=O)N3c2nc3c(Cl)cccc3s2)cc1 [(S)-2-[(3aS,6S,6aR)-4-(4-Chloro-benzothiazol-2-yl)-6-methyl-5-oxo-hexahydro-pyrrolo[3,2-b]pyrrole-1-carbonyl]-pyrrolidine-1-carboxylic acid (4-isopropyl-phenyl)-amide]
7.66 | COc1ccc2sc(N3C(=O)[C@@H](C)[C@@H]4[C@@H]3CCN4C(=O)[C@@H]3CCCN3C(=O)Nc3ccc(C(C)C)cc3)nc2c1 [(S)-2-[(3aS,6S,6aR)-4-(5-Methoxy-benzothiazol-2-yl)-6-methyl-5-oxo-hexahydro-pyrrolo[3,2-b]pyrrole-1-carbonyl]-pyrrolidine-1-carboxylic acid (4-isopropyl-phenyl)-amide]
8.00 | CC(C)c1ccc(NC(=O)N2CCC[C@H]2C(=O)N2CC[C@H]3[C@H]2[C@H](C)C(=O)N3c2nc3cc(S(=O)(=O)C(F)F)ccc3s2)cc1 [(S)-2-{(3aS,6S,6aR)-4-[5-(Difluoro-methanesulfonyl)-benzothiazol-2-yl]-6-methyl-5-oxo-hexahydro-pyrrolo[3,2-b]pyrrole-1-carbonyl}-pyrrolidine-1-carboxylic acid (4-isopropyl-phenyl)-amide]
7.77 | CC(C)c1ccc(NC(=O)N2CCC[C@H]2C(=O)N2CC[C@H]3[C@H]2[C@H](C)C(=O)N3c2nc3ccc(F)cc3s2)cc1 [(S)-2-[(3aS,6S,6aR)-4-(6-Fluoro-benzothiazol-2-yl)-6-methyl-5-oxo-hexahydro-pyrrolo[3,2-b]pyrrole-1-carbonyl]-pyrrolidine-1-carboxylic acid (4-isopropyl-phenyl)-amide]
